Assay results reported in article PMC9482650, “Quantitative fragmentomics allow affinity mapping of interactomes” (Nature Communications, 2022).

Columns and labels:
HeLa cell extract preys = assay: PBM-AP-MS, PBM peptide baits; format: binding, human
Experimental: (§1) HEK293T and HeLa cells were authenticated and found 100% identity to ATCC cat. CRL-3216 and ATCC cat. CCL-2, respectively. Jurkat and HaCat cell lines were not authenticated (original source: ECACC and Deutsches Krebsforschungszentrum DKFZ, respectively). HeLa cells were grown in DMEM (1 g/L glucose, Gibco) medium completed with 5% FCS and 40 μg/mL gentamicin, diluted every 3rd/4th day 1/10. HaCat cells were grown in DMEM (1 g/L glucose, Gibco) medium completed with 10% FCS and 40 μg/mL gentamicin, diluted every 3rd/4th day 1/4. Jurkat cells were grown in RPMI (Gibco) medium completed with 10% FCS and 40 μg/mL gentamicin, diluted every 3rd/4th day 1/12. All cells were kept at 37 °C and 5% CO2. For proteomics analyses cells were seeded on T-175 flasks. After they reached confluency, adherent cells were washed with PBS once and collected by scraping with ice-cold lysis buffer (Hepes-KOH pH 7.5 50 mM, NaCl 150 mM, Triton X-100 1%, complete EDTA-free protease inhibitor cocktail 1×, EDTA 2 mM, TCEP 5 mM, glycerol 10%). Jurkat cells were collected by 1000 g × centrifugation, washed once with PBS, then collected by 1000 g × 5 min centrifugation again and lysed in ice-cold lysis buffer. Lysates were sonicated 4 × 20 s with 1 s long pulses on ice, then incubated rotating at 4 °C for 30 min. Lysates were centrifuged at 12,000 rpm 4 °C for 20 min and supernatant was kept for further analysis. Concentration determination was carried out by standard Bradford method (Bio-Rad Protein Assay Dye Reagent #5000006) using BSA (MP BIomedicals #160069) as control on a Bio-Rad SmartSpec 3000 spectrophotometer instrument.
(§2) For PBM-AP-MS experiments, 30 μl streptavidin resin was mixed with biotin or peptide at 50–60 μM concentration in 6–6.5 resin volume for 60 min to achieve resin saturation. For PDZ-AP-MS experiments, 30 μl streptavidin resin was mixed with biotinylated MBP or MBP-PDZ at 40-50 μM concentration in >1000× resin volume for 60 min to achieve resin saturation. After saturation, resins were washed a single time (ten resin volume, holdup buffer), and were depleted with biotin (1 mM biotin, 5–10 resin volume, 10 min). Finally, resins were washed two times. 0.5 ml 2 mg/ml cell lysate was added to the dry resin (1 mg total input) and were incubated at 4 °C for 2 h. Then, the beads were washed three times with 10 resin volume buffer containing: 50 mM TRIS pH 8.5, 150 mM NaCl, 1% TritonX-100, 10× complete EDTA-free protease inhibitor cocktail, 2 mM EDTA, 1 mM TCEP. Then, the beads were washed two times with ten resin volume buffer containing: 50 mM TRIS pH 8.5, 150 mM NaCl, 1 mM TCEP. Finally, captured protein was eluted from the resin in two steps and the eluted fractions were pooled. For each elution the beads were incubated for 30 min with three resin volume buffer containing: 20 mM TRIS pH8.5, 100 mM NaCl, 500 μM TCEP, 8 M Urea. Between each step, the beads were separated by mild centrifugation and the supernatant was removed by gentle pipetting.
(§3) The samples were precipitated with TCA 20% overnight at 4 °C and centrifuged at 14,000 rpm for 10 min at 4 °C. The protein pellets were washed twice with 1 mL cold acetone and air dried. The protein extracts were solubilized in urea 8 M, reduced with 5 mM TCEP for 30 min, and alkylated with 10 mM iodoacetamide for 30 min in the dark. Double digestion was performed at 37 °C with 500 ng endoproteinase Lys-C for 4 h, followed by fourfold dilution and an overnight digestion with 500 ng trypsin. Peptide mixtures were then desalted on C18 spin-column and dried on Speed-Vacuum.
(§4) Samples were analyzed using an Ultimate 3000 nano-RSLC (Thermo Scientific, San Jose California) coupled in line with a LTQ-Orbitrap ELITE mass spectrometer via a nano-electrospray ionization source (Thermo Scientific, San Jose California). […]

HaCat cell extract preys = assay: PBM-AP-MS, PBM peptide baits; format: binding, human
Experimental: as §1, §2, §3, §4

HPV18E6
Enrichment values compared to biotin controls (HeLa cell extract preys; prey AHNAK, PBM peptide bait): 0.9
Enrichment values compared to biotin controls (HeLa cell extract preys; prey ARHGAP21, PBM peptide bait): 1.1
Enrichment values compared to biotin controls (HeLa cell extract preys; prey ARHGEF12, PBM peptide bait): 1.0
Enrichment values compared to biotin controls (HeLa cell extract preys; prey CASK, PBM peptide bait): 5.3
Enrichment values compared to biotin controls (HeLa cell extract preys; prey DLG1, PBM peptide bait): 6.5
Enrichment values compared to biotin controls (HeLa cell extract preys; prey DLG3, PBM peptide bait): 5.8
Enrichment values compared to biotin controls (HeLa cell extract preys; prey DLG5, PBM peptide bait): 1.4
Enrichment values compared to biotin controls (HeLa cell extract preys; prey DVL2, PBM peptide bait): 1.0
Enrichment values compared to biotin controls (HeLa cell extract preys; prey GOPC, PBM peptide bait): 2.8
Enrichment values compared to biotin controls (HeLa cell extract preys; prey HTRA1, PBM peptide bait): 2.4
Enrichment values compared to biotin controls (HeLa cell extract preys; prey InaDl, PBM peptide bait): 3.6
Enrichment values compared to biotin controls (HeLa cell extract preys; prey LAP2, PBM peptide bait): 1.8
Enrichment values compared to biotin controls (HeLa cell extract preys; prey LIN7C, PBM peptide bait): 285.6
Enrichment values compared to biotin controls (HeLa cell extract preys; prey LMO7, PBM peptide bait): 1.9
Enrichment values compared to biotin controls (HeLa cell extract preys; prey MPDZ, PBM peptide bait): 3.2
Enrichment values compared to biotin controls (HeLa cell extract preys; prey MPP5, PBM peptide bait): 60.3
Enrichment values compared to biotin controls (HeLa cell extract preys; prey MPP6, PBM peptide bait): 3.7
Enrichment values compared to biotin controls (HeLa cell extract preys; prey MPP7, PBM peptide bait): 14.5
Enrichment values compared to biotin controls (HeLa cell extract preys; prey NHERF2, PBM peptide bait): 0.843
Enrichment values compared to biotin controls (HeLa cell extract preys; prey NHERF3, PBM peptide bait): 0.8
Enrichment values compared to biotin controls (HeLa cell extract preys; prey PDLIM5, PBM peptide bait): 0.9
Enrichment values compared to biotin controls (HeLa cell extract preys; prey PDLIM7, PBM peptide bait): 0.8
Enrichment values compared to biotin controls (HeLa cell extract preys; prey PSMD9, PBM peptide bait): 0.8
Enrichment values compared to biotin controls (HeLa cell extract preys; prey SCRIB, PBM peptide bait): 215.8
Enrichment values compared to biotin controls (HeLa cell extract preys; prey SIPA1L1, PBM peptide bait): 0.9
Enrichment values compared to biotin controls (HeLa cell extract preys; prey SNTA1, PBM peptide bait): 1.2
Enrichment values compared to biotin controls (HeLa cell extract preys; prey SNTB1, PBM peptide bait): 18.1
Enrichment values compared to biotin controls (HeLa cell extract preys; prey SNTB2, PBM peptide bait): 76.9
Enrichment values compared to biotin controls (HeLa cell extract preys; prey SNX27, PBM peptide bait): 12.8
Enrichment values compared to biotin controls (HeLa cell extract preys; prey SYNJ2BP, PBM peptide bait): 49.1
Enrichment values compared to biotin controls (HeLa cell extract preys; prey TJP1, PBM peptide bait): 1.7
Enrichment values compared to biotin controls (HeLa cell extract preys; prey TX1B3, PBM peptide bait): 30.0
Enrichment values compared to biotin controls (HaCat cell extract preys; prey AHNAK2, PBM peptide bait): 0.8
Enrichment values compared to biotin controls (HaCat cell extract preys; prey AHNAK, PBM peptide bait): 1.4
Enrichment values compared to biotin controls (HaCat cell extract preys; prey DLG1, PBM peptide bait): 2.3
Enrichment values compared to biotin controls (HaCat cell extract preys; prey GORASP2, PBM peptide bait): 9.0
Enrichment values compared to biotin controls (HaCat cell extract preys; prey InaDl, PBM peptide bait): 8.0
Enrichment values compared to biotin controls (HaCat cell extract preys; prey LAP2, PBM peptide bait): 0.9
Enrichment values compared to biotin controls (HaCat cell extract preys; prey LIN7C, PBM peptide bait): 215.4
Enrichment values compared to biotin controls (HaCat cell extract preys; prey MAGI3, PBM peptide bait): 7.4
Enrichment values compared to biotin controls (HaCat cell extract preys; prey MPP5, PBM peptide bait): 11.3
Enrichment values compared to biotin controls (HaCat cell extract preys; prey MPP6, PBM peptide bait): 5.0
Enrichment values compared to biotin controls (HaCat cell extract preys; prey MPP7, PBM peptide bait): 48.3
Enrichment values compared to biotin controls (HaCat cell extract preys; prey NHERF2, PBM peptide bait): 1.8
Enrichment values compared to biotin controls (HaCat cell extract preys; prey NHERF, PBM peptide bait): 2.5
Enrichment values compared to biotin controls (HaCat cell extract preys; prey PDLIM1, PBM peptide bait): 3.2
Enrichment values compared to biotin controls (HaCat cell extract preys; prey PDLIM2, PBM peptide bait): 0.8
Enrichment values compared to biotin controls (HaCat cell extract preys; prey PDLIM4, PBM peptide bait): 1.0
Enrichment values compared to biotin controls (HaCat cell extract preys; prey PDLIM5, PBM peptide bait): 0.7
Enrichment values compared to biotin controls (HaCat cell extract preys; prey PDLIM7, PBM peptide bait): 0.5
Enrichment values compared to biotin controls (HaCat cell extract preys; prey PTPN3, PBM peptide bait): 1.7
Enrichment values compared to biotin controls (HaCat cell extract preys; prey SCRIB, PBM peptide bait): 0.6
Enrichment values compared to biotin controls (HaCat cell extract preys; prey SNTB2, PBM peptide bait): 15.4
Enrichment values compared to biotin controls (HaCat cell extract preys; prey SNX27, PBM peptide bait): 0.641
Enrichment values compared to biotin controls (HaCat cell extract preys; prey SYNJ2BP, PBM peptide bait): 58.4
Enrichment values compared to biotin controls (HaCat cell extract preys; prey TJP1, PBM peptide bait): 8.8
Enrichment values compared to biotin controls (HaCat cell extract preys; prey TJP2, PBM peptide bait): 1.8
Enrichment values compared to biotin controls (HaCat cell extract preys; prey TX1B3, PBM peptide bait): 1.6
